The values below come from patent US4192871A, “Chemical compounds” (Glaxo Laboratories Limited, priority 1976, dated 1980).

The nature of data set [1]: pH of the salt solutions. It counts as physicochemical. On the procedure: (§1) A solution of the above free base (492 mg; 1 mmole) in ethanol (10 ml) was treated with a solution (10 ml) of M/10 citric acid in ethanol water (9:1) and the mixture evaporated in vacuo at low temperature to afford a froth.
(§2) Table 5 summarises the properties and preparation of salts of the invention by one of the following methods:
(§3) A. The 11β-aminoester (1 part) was added to a solution of the acid (1 molar part) in water and the mixture stirred or shaken until a clear solution was obtained. The solution was made up with water to the weight indicated, filtered through a membrane and the pH determined.
(§4) B. The 11β-aminoester (1 part) was added to a solution of the acid (1 molar part) in water and the mixture stirred or shaken. As free base remained undissolved, further acid was added and the mixture agitated again. The solution was made up with water to the weight indicated and any material which then remained undissolved was collected in a weighed funnel and the weight of free base dissolved calculated and the pH of the solution measured.
(§5) C. A mixture of the 11β-aminoester (1 part), a 0.1 M solution of the acid (1 molar part) and ethanol was evaporated in vacuo and dried to constant weight. The residue was dissolved in a little water and any material which then remained undissolved collected in a weighed funnel and the weight of free base dissolved calculated. The solution was made up with water to the weight indicated and its pH measured.
(§6) D. The 11β-aminoester (1 part) was added to a solution of the acid (1 molar part) in water and the mixture stirred or shaken. The solution was made up with water to the weight indicated. The material remaining undissolved was collected in a weighed funnel and the weight of free base dissolved calculated and the pH of the solution measured.
(§7) E. As in method C except that further acid was added to the residue after addition of the small amount of water.
11β-N,N-Diethylaminoacetoxy-2β-ethoxy-3α-hydroxy-5α-pregnan-20-one (1.45 g) was agitated with citric acid monohydrate (621 mg) in 0.9% w/v sodium chloride solution (steriflex^(R)) (130 ml.) at 20° for 16.5 hours. The resulting solution was stirred at 21° and N/5 sodium hydroxide solution in steriflex^(R) (10.5 ml) was added dropwise during 30 minutes, raising the pH from 3.63 to 4.52. The solution was diluted to 162.5 g so that the concentration of steroid was 9 mg/ml. The solution of the citrate was filtered through a membrane and finally filtered into 8 sterile ampoules.
11β-(N-Butyl-N-ethylaminoacetoxy)-3α-hydroxy-5α-pregnan-20-one (1.80 g) was agitated with citric acid monohydrate (793 mg) in 0.9% w/v sodium chloride solution (steriflex^(R)) (160 ml) at 20° for 19.5 hours. The resulting solution was slightly cloudy. This solution was stirred at 21° and N/5 sodium hydroxide solution in steriflex^(R) (5.8 ml) was added dropwise during 15 minutes, raising the pH from 3.62 to 4.00. The solution was diluted to 201.2 g so that the concentration of steroid was 9 mg/ml. The cloudiness was removed by filtration through a membrane and the clear solution of the citrate was filtered into 8 sterile ampoules.
Sodium iodide (0.250 g) and diethylamine (0.5 ml) were added to a solution of 11β-chloroacetoxy-2β-ethoxy-3α-hydroxy-D-homo-5α-pregnan-20-one (0.250 g) in acetone (10 ml) and the mixture was left at room temperature for 3 days during which time a white solid precipated. Water was added and the yellow solution was concentrated in vacuo whereupon crystallisation occurred. The needles were filtered off and washed well with acetone/water yielding the title compound (0.201 g), m.p. 160°-73°, [α]D +60.8°. The above base (0.101 g) was stirred with citric acid monohydrate (0.042 g) in water (9.5 ml) for 21 hours. The solution was made up to 10.1 g by weight. The solid remaining out of solution was filtered off, dried and weighed. The solution was passed through a millipore filter giving an aqueous solution of the title compound, concentration 9.75 mg/ml, pH 3.66. […]

Data set [2] is described as follows: dissolution of the 11β-aminoester salts in aqueous acid (Table 5 and Examples 101, 225-229). It counts as physicochemical. How it is done:
as §1, §2, §3, §4, §5, §6, §7
The solid citric acid used was as its monohydrate.
Sodium iodide (0.250 g) and diethylamine (0.5 ml) were added to a solution of 11β-chloroacetoxy-2β-ethoxy-3α-hydroxy-D-homo-5α-pregnan-20-one (0.250 g) in acetone (10 ml) and the mixture was left at room temperature for 3 days during which time a white solid precipated. Water was added and the yellow solution was concentrated in vacuo whereupon crystallisation occurred. The needles were filtered off and washed well with acetone/water yielding the title compound (0.201 g), m.p. 160°-73°, [α]D +60.8°. The above base (0.101 g) was stirred with citric acid monohydrate (0.042 g) in water (9.5 ml) for 21 hours. The solution was made up to 10.1 g by weight. The solid remaining out of solution was filtered off, dried and weighed. The solution was passed through a millipore filter giving an aqueous solution of the title compound, concentration 9.75 mg/ml, pH 3.66.
The above base (0.096 g) was stirred in a solution of citric acid monohydrate (0.038 g) in water (8.5 ml) for 20 hours. A large proportion of the steroid remained out of solution. More citric acid (0.038 g) was added and the mixture stirred for a further 6 hours. The solution was made up to 9.6 g by weight and the solid remaining out of solution was filtered off, dried and weighed. The solution was passed through a millipore filter giving an aqueous solution of the title compound, concentration 9.5 mg/ml, pH 2.85.
To a solution of citric acid monohydrate (52.5 mg) in water (2 ml) was added the above free base (115 mg). More water (8 ml) was added and the mixture was stirred for 72 hrs. A small amount of steroid remained out of solution and more citric acid (52.5 mg) was added. Within 5 mins. a clear solution was obtained which was made up to 11.5 g with water and filtered through a millipore filter yielding an aqueous solution of the title citrate, concentration 10 mg/ml, pH 3.0.
The above free base (112 mg) was added to a solution of citric acid monohydrate (52.5 mg) in water (2 ml). More water (8 ml) was added and the mixture was swirled from time to time. […]

Where [3] appears, read: aqueous solution of the salt, Table 5.
[4] abbreviates: method A: clear solution, 1 molar part acid, made up with water to WT. of solution 10 g, except Ex. 121 and 150: 12, 123: 12.3, 124: 7.5, 129: 10.3, 135 and 139: 8.95, 164: 10.35, 170: 10.4, 181: 10.04, 187: 9.5, 210: 10.2, 221: 15 g.
Setting [5] is: method C: ethanol evaporated, residue in water, undissolved material weighed, WT. of solution Ex. 118: 10, 120: 10.4, 148: 9.54, 152: 5.6, 154: 9.1, 155: 8.77, 156: 9.06, 157: 9.5, 158: 9.38, 159: 9.17, 179: 9.65, 180: 11.7, 182: 4.9, 202: 12.05, 213: 12, 214: 11.5, 215: 11.1, 216: 11.6, 217: 12.1 g.
Setting [6] is: method D: 1 molar part acid, undissolved material weighed, WT. of solution 10 g, except Ex. 136: 8.95, 140: 9.52, 165 and 167: 10.1, 190 and 198: 9.8, 191: 8.9, 194: 6.6, 204: 10.09, 219: 10.6 g.
Setting [7] is: method B: further acid added, undissolved material weighed, WT. of solution 10 g, except Ex. 130 and 141: 9.2, 142: 9.23, 143, 144, 189 and 199: 9.8, 149: 10.6, 153: 7.9, 162 and 188: 9.5, 163: 68, 166: 10.4, 168: 10.7, 169: 10.9, 183: 8.05, 184 and 201: 9.83, 185: 7.1, 186: 9.3, 192: 10.07, 193: 6.4, 195: 6.8, 196: 7, 197: 7.2, 200: 10.1, 206: 15 g.

Structures can show the parent of a compound that is named as a salt.

On to `CCO[C@H]1C[C@@]2(C)[C@@H](CC[C@@H]3[C@@H]2[C@@H](OC(=O)CN(CC)CC)C[C@]2(C)[C@@H](C(C)=O)CC[C@@H]32)C[C@@H]1O.O=C(O)CC(O)(CC(=O)O)C(=O)O` [Example 101 citrate salt, 11β-N,N-Diethylaminoacetoxy-2β-ethoxy-3α-hydroxy-5α-pregnan-20-one, citrate salt], for which the pH in data set [1] (solution in 0.9% w/v saline, pH adjusted with sodium hydroxide solution) was 4.52; in data set [1] (solution of the salt in saline, before any adjustment, citrate salt), 3.5; in data set [1] (solution of the salt in saline, before any adjustment, listed as Example 223, citrate salt) it was 3.63. Further, the dissolution in saline entry in data set [2] (citrate salt froth, in saline) was “dissolved readily in saline”.
In the case of `CCO[C@H]1C[C@@]2(C)[C@@H](CC[C@@H]3[C@@H]2[C@@H](OC(=O)CN(CC)CC)C[C@]2(C)[C@@H](C(C)=O)CCC[C@@H]32)C[C@@H]1O` [Example 225 citrate salt], in data set [1] (aqueous solution of the citrate, filtered, 9.5-10 mg/ml), the pH was determined as 3.66. Moreover, the “concentration of aqueous solution of the citrate” value in data set [2] (citric acid monohydrate in water, filtered solution) turned out to be 9750 µg/mL.
With `CCC(C)NCC(=O)O[C@H]1C[C@]2(C)[C@@H](C(C)=O)CC[C@H]2[C@@H]2CC[C@H]3C[C@H](O)CC[C@]3(C)[C@H]21` (stereo partly drawn) [Example 139], the pH in data set [1] (setting [3]) is listed as 3.76. In data set [2] (setting [4]), the Dissolved aminoester is 89.5 mg.
As for `CCCN(CCC)CC(=O)O[C@H]1C[C@]2(C)[C@@H](C(C)=O)CC[C@H]2[C@@H]2CC[C@H]3C[C@H](O)CC[C@]3(C)[C@H]21` [Example 216], the pH in data set [1] (setting [3]) is given as 3.58. Also, in data set [2] (setting [5]), the Dissolved aminoester was determined as 116 mg.
`CC(=O)[C@H]1CC[C@H]2[C@@H]3CC[C@H]4C[C@H](O)CC[C@]4(C)[C@H]3[C@@H](OC(=O)CN(C)C(C)CC(C)C)C[C@]12C` (stereo partly drawn) [Example 190]: in data set [1] (setting [3]), the pH was determined as 3.43. The Dissolved aminoester in data set [2] (setting [6]) came to 86 mg.
For `CC(=O)[C@H]1CC[C@H]2[C@@H]3CC[C@H]4C[C@H](O)CC[C@]4(C)[C@H]3[C@@H](OC(=O)CCN(C)C(C)CC(C)C)C[C@]12C` (stereo partly drawn) [Example 200], the pH in data set [1] (setting [3]) is listed as 3.2. Further, the Dissolved aminoester in data set [2] (setting [7]) was 83 mg.
`CC(=O)[C@H]1CC[C@H]2[C@@H]3CC[C@H]4C[C@H](O)CC[C@]4(C)[C@H]3[C@@H](OC(=O)CN(C)[C@H](C)CC(C)C)C[C@]12C` [Example 198]: in data set [1] (setting [3]), the pH is on record as 3.62. Moreover, the Dissolved aminoester in data set [2] (setting [6]) is on record as 90 mg.
As for `CCCN(CCC)CC(=O)O[C@H]1C[C@]2(C)[C@@H](C(C)=O)CC[C@H]2[C@@H]2CC[C@H]3C[C@H](O)CC[C@]3(C)[C@H]21` [Example 213], the pH in data set [1] (setting [3]) is given as 3.8. The Dissolved aminoester in data set [2] (setting [5]) turned out to be 119 mg.
Take `CCCN(CCC)CC(=O)O[C@H]1C[C@]2(C)[C@@H](C(C)=O)CC[C@H]2[C@@H]2CC[C@H]3C[C@](C)(O)CC[C@]3(C)[C@H]21` [Example 132]: the pH in data set [1] (setting [3]) worked out at 3.4. Besides, the Dissolved aminoester in data set [2] (setting [4]) is recorded as 100 mg.
Turning to `CC(=O)[C@H]1CC[C@H]2[C@@H]3CC[C@H]4C[C@H](O)CC[C@]4(C)[C@H]3[C@@H](OC(=O)CN3CCCCC3)C[C@]12C` [Example 156], the pH in data set [1] (setting [3]) is on record as 3.52. For the same compound, the Dissolved aminoester in data set [2] (setting [5]) stood at 90.3 mg.
As to `CC(=O)C1CCC2C3CCC4CC(O)C(C)CC4(C)C3C(OC(=O)CN3CCC(C)CC3)CC12C` (stereo not drawn) [Example 175], in data set [1] (setting [3]), the pH is on record as 2.96. For the same compound, the Dissolved aminoester in data set [2] (setting [7]) turned out to be 95 mg.
For the compound `CC(=O)[C@H]1CC[C@H]2[C@@H]3CC[C@H]4C[C@H](O)CC[C@]4(C)[C@H]3[C@@H](OC(=O)CN3CC4CCC(CC4)C3)C[C@]12C` [Example 160], the pH in data set [1] (setting [3]) is listed as 2.6. Moreover, in data set [2] (method E: as C with further acid, WT. of solution Ex. 160: 6.12, 161: 7.8, 203: 12.7, 212: 12.125, 220: 10 g), the Dissolved aminoester is 80.6 mg.
For `CCCCN(C)CC(=O)O[C@H]1C[C@]2(C)[C@@H](C#N)CC[C@H]2[C@@H]2CC[C@H]3C[C@H](O)CC[C@]3(C)[C@H]21` [Example 205], the pH in data set [1] (setting [3]) is on record as 3.4. In data set [2] (setting [6]), the Dissolved aminoester is 97 mg.
As to `CC(=O)[C@H]1CC[C@H]2[C@@H]3CC[C@H]4C[C@H](O)CC[C@]4(C)[C@H]3[C@@H](OC(=O)CNC3CCCC3)C[C@]12C` [Example 137], in data set [1] (setting [3]), the pH turned out to be 3.62. Further, the Dissolved aminoester in data set [2] (setting [4]) is 100 mg.
On to `CCC(C)CNCC(=O)O[C@H]1C[C@]2(C)[C@@H](C(C)=O)CC[C@H]2[C@@H]2CC[C@H]3C[C@H](O)CC[C@]3(C)[C@H]21` (stereo partly drawn) [Example 129], for which the pH in data set [1] (setting [3]) was found to be 3.64. The Dissolved aminoester in data set [2] (setting [4]) is 92.3 mg.
In the case of `CC(=O)[C@H]1CC[C@H]2[C@@H]3CC[C@H]4C[C@H](O)CC[C@]4(C)[C@H]3[C@@H](OC(=O)CN(C)Cc3ccccc3)C[C@]12C` [Example 119], the pH in data set [1] (setting [3]) is given as 2.7. Also, the Dissolved aminoester in data set [2] (setting [7]) was 73 mg.
The matching figures for `CC(=O)[C@H]1CC[C@H]2[C@@H]3CC[C@H]4C[C@H](O)CC[C@]4(C)[C@H]3[C@@H](OC(=O)CN(C)C(C)(C)C)C[C@]12C` [Example 201]: 3.12 and 98.3 mg.
